Laboratory results as given in patent US12018023B2 (NERVIANO MEDICAL SCIENCES S.R.L., priority 2018, dated 2024).

How the values were obtained:
IDH1^R132C = target: T1, IDH1^R132C (Homo sapiens, UniProt O75874, R132C); test: NADPH depletion assay, IDH1 R132C; format: biochemical
T1 construct: purchased not specified
Outline: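 IDH1 R132C (2 nM) preincubated 15 min at RT with compound in Tris-HCl pH 7.6/MgCl2 buffer, then 60 min RT with NADPH and 0.14 mM alpha-ketoglutarate. Remaining NADPH read by diaphorase/resazurin fluorescence (Ex544/Em590).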

HT-1080 (IDH1^R132C) = test: Cellular 2-HG production assay, HT-1080; format: cell-based; conditions: Homo sapiens, HT-1080, 72 h, inhibition of 2HG production, 72 hr incubation, LC-MS/MS; read-out: HT1080 2-HG IC50
Outline: (§1)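 Cells in E-MEM/10% FCS (G418 500 μg/mL for the transfected U87-MG line) at 500 per well got compound 24 h after seeding and were incubated 72 h at 37 °C. Medium 2-HG was measured by LC-MS/MS with 2-HG-d3 internal standard; IC50 came from sigmoidal fitting versus controls.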

IDH2^R172K = target: T2, IDH2^R172K (Homo sapiens, UniProt P48735, R172K); test: NADPH depletion assay, IDH2 R172K; format: biochemical
T2 construct: purchased not specified
T2 sequence (P48735 40-452 R172K): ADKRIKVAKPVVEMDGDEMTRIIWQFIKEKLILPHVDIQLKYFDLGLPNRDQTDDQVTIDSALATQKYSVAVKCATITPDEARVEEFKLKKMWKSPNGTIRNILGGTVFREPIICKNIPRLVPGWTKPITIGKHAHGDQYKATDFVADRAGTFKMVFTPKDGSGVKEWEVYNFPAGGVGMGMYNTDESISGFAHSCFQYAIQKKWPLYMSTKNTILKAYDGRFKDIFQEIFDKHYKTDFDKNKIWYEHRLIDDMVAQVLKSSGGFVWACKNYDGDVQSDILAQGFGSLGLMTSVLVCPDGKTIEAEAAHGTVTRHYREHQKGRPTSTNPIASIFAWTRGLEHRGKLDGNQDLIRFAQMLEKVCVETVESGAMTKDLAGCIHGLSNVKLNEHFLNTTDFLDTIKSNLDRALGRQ
Outline: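 IDH2 R172K (16 nM) was preincubated 15 min at RT with compound (1:3 series from 1 mM in DMSO) in Tris pH 7.6/NaCl/MgCl2/Triton/β-mercaptoethanol. The reaction ran 60 min at RT with 0.55 mM alpha-ketoglutarate and NADPH (12 μM in the substrate mix). Remaining NADPH was read with diaphorase/resazurin fluorescence at Ex544/Em590.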

U87MG_IDH1R132H = test: Cellular 2-HG production assay, U87-MG-IDH1 R132H; format: cell-based; conditions: inhibition of 2HG production, 72 hr incubation, LC-MS/MS
Outline: as §1

[1] = target: T3, IDH1^R132H homodimer enzyme (Homo sapiens, UniProt O75874, R132H); test: NADPH depletion assay, IDH1 R132H; format: biochemical
T3 construct: purchased not specified
Outline: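 IDH1 R132H enzyme (8 nM as diluted) in Tris-HCl pH 7.6 with 10 mM MgCl2, 0.001% Triton X-100 and 4 mM β-mercaptoethanol is preincubated 15 min at RT with compound. Substrate mix (12 uM NADPH, 3.4 mM α-ketoglutarate) is added for 60 min; remaining NAD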

IDH1WT enzyme = target: T4, IDH1WT enzyme (Homo sapiens, UniProt O75874); test: Enzymatic assay for IDH1 wild-type (NADPH forming assay); format: biochemical
T4 construct: purchased not specified
Experimental: IDH1WT enzymatic activity converting isocitric acid to alpha-ketoglutarate is measured using a NADPH forming assay. In the assay the forming cofactor is measured in continuous with the addition of a catalytic excess of diaphorase and resazurin, to generate a fluorescent signal in proportion to the amount of NADPH forming.
Compounds were preincubated with the enzyme, then the reaction was started by the addition of NADP^+, isocitrate, diaphorase and a corresponding substrate, resazurin. Diaphorase reduces resazurin to the highly fluorescent resorufin with the concomitant oxidation of NADPH to NADP. Specifically, 0.2 uL of test compound, previously serially diluted 1 to 3, 10 experimental points from 1 mM in DMSO, was added to 0.016 nM IDH1WT enzyme in 10 μL of Assay Buffer (150 mM NaCl, 50 mM Tris-HCl pH 7.6, 10 mM MgCl2, 0.001% Triton X-100, 4 mM β-mercaptoethanol); the mixture is incubated for 15 minutes at room temperature. The reaction is started with the addition of 10 μL of Substrate Mix (400 μM NADP^+, 40 μM iso-citrate, 5 ugr/mL Diaphorase and 7 μM resazurin in Assay Buffer), the mixture is incubated at room temperature and the reaction is reading on a ViewLux as platereader at Ex544/Em590 in continuous.

T3 sequence (O75874 whole entry R132H): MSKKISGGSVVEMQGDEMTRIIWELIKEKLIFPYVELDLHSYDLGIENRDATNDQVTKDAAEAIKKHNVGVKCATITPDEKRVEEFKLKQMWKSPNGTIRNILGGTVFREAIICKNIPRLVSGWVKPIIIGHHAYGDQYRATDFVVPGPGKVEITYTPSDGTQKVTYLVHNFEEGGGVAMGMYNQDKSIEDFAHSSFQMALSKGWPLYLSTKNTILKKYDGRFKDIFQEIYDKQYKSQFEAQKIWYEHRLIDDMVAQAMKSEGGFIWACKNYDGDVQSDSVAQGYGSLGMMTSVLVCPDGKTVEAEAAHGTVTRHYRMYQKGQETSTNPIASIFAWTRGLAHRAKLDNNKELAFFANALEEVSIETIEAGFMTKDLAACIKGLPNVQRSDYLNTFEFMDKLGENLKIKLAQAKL
T1 sequence (O75874 whole entry R132C): as the sequence (O75874 whole entry R132H) above, with H132C counted along it
T4 sequence (O75874 whole entry): as the sequence (O75874 whole entry R132H) above, with H132R counted along it

Row | Structure (SMILES) | IC50 (IDH1^R132C) [nM] | IC50 (HT-1080 (IDH1^R132C)) [nM] | IC50 (IDH2^R172K) [nM] | IC50 (U87MG_IDH1R132H) [nM] | IC50 [1] [nM] | IC50 (IDH1WT enzyme) [nM]
1 | C[C@H](Nc1ncc2ccc(=O)n(CC(C)(C)C)c2n1)c1ccc(CN2CCC(F)(F)CC2)cc1 [cpd 105, 2-{[(1S)-1-{4-[(4,4-difluoropiperidin-1-yl)methyl]phenyl)ethyl]amino)-8-(2,2-dimethylpropyl)pyrido[2,3-d]pyrimidin-7(8H)-one] | 55 | 116 | 4730 | 417 | 105 | 2040
2 | CC(C)[C@H](C)n1c(=O)ccc2cnc(N[C@@H](C)c3ccc(CN4CCC(F)(F)CC4)c(F)c3)nc21 [cpd 67, 2-{[(1S)-1-{4-[(4,4-difluoropiperidin-1-yl)methyl]-3-fluorophenyl}ethyl]amino}-8-[(2S)-3-methylbutan-2-yl]pyrido[2,3-d]pyrimidin-7(8H)-one] | 15 | 67 | 7360 | 200 | 37 | 1710
3 | C=CC(=O)N1CCN([C@@H](CC2CC2)c2ccc([C@H](C)Nc3ncc4ccc(=O)n(C(C)C)c4n3)cc2)CC1 [cpd 230, 2-{[(1S)-1-{4-[(1S)-1-(4-acryloylpiperazin-1-yl)-2-cyclopropylethyl]phenyl}ethyl]amino}-8-(propan-2-yl) pyrido [2,3-d]pyrimidin-7(8H)-one] | 1 | 0.4 | 11 | 0.4 | 1 | 39
4 | C=CC(=O)N1CCN([C@H](CC)c2ccc([C@H](C)Nc3ncc4ccc(=O)n(C(C)C)c4n3)cc2)CC1 [cpd 228, 2-{[(1S)-1-{4-[(1R)-1-(4-acryloylpiperazin-1-yl)propyl]phenyl}ethyl]amino}-8-(propan-2-yl)pyrido[2,3-d]pyrimidin-7(8H)-one] | 2 | 0.8 | 25 | 0.6 | 2 | 27.3
5 | C=CC(=O)N1CCN(Cc2ccc([C@H](C)Nc3ncc4ccc(=O)n(CC(C)(C)CO)c4n3)cc2)CC1 [cpd 140, 2-{(S)-1-[4-(4-Acryloyl-piperazin-1-ylmethyl)-phenyl]-ethylamino}-8-(3-hydroxy-2,2-dimethyl-propyl)-8H-pyrido [2,3-d]pyrimidin-7-one] | 115 | 108 | 3230 | 10 | 249 | 4850
6 | C=CC(=O)N1CCN([C@@H](CC)c2ccc([C@H](C)Nc3ncc4ccc(=O)n(C(C)C)c4n3)cc2)CC1 [cpd 227, 2-{[(1S)-1-{4-[(1S)-1-(4-acryloylpiperazin-1-yl)propyl]phenyl}ethyl]amino}-8-(propan-2-yl)pyrido[2,3-d]pyrimidin-7(8H)-one] | 5 | 1.4 | 49 | 0.4 | 7 | 109
7 | C=CC(=O)N1CCN(C(CC2CC2)c2ccc([C@H](C)Nc3ncc4ccc(=O)n(C(C)C)c4n3)cc2)CC1 (stereo partly drawn) [cpd 220, 2-{[(1S)-1-{4-[1-(4-acryloylpiperazin-1-yl)-2-cyclopropylethyl]phenyl}ethyl]amino}-8-(propan-2-yl)pyrido[2,3-d]pyrimidin-7(8H)-one] | 1 | 0.3 | 15 | 0.5 | 1 | 53
8 | C[C@H](Nc1ncc2ccc(=O)n(CC(C)(C)C)c2n1)c1ccc(CN2CCCC(F)(F)C2)cc1 [cpd 117, 2-{[(1S)-1-{4-[(3,3-difluoropiperidin-1-yl)methyl]phenyl}ethyl]amino}-8-(2,2-dimethylpropyl)pyrido[2,3-d]pyrimidin-7(8H)-one] | 29 | 155 | 5510 | 177 | 55 | 1580
9 | C=CC(=O)N1CCN(C(CC)c2ccc([C@@H](C)Nc3ncc4ccc(=O)n(C(C)C)c4n3)cc2)CC1 (stereo in doubt) [cpd 229, 2-{[(1R)-1-{4-[(1R)-1-(4-acryloylpiperazin-1-yl)propyl]phenyl}ethyl]amino}-8-(propan-2-yl)pyrido[2,3-d]pyrimidin-7(8H)-one] | 44 | 20 | 386 | 13 | 83 | 839
10 | C=CC(=O)N1CCN(Cc2ccc([C@H](C)Nc3ncc4ccc(=O)n(CC(C)(C)C)c4n3)cc2)CC1 [cpd 139, 2-{(S)-1-[4-(4-Acryloyl-piperazin-1-ylmethyl)-phenyl]-ethylamino}-8-(2,2-dimethyl-propyl)-8H-pyrido[2,3-d]pyrimidin-7-one] | 21 | 22 | 264 | 8 | 42 | 720
